Source: patent US20240390256A1, “A DEODORANT COMPOSITION” (priority 2021, published 2024)

Test system: S. hominis ATCC 27844
Test: Malodour assay using lead acetate method (H2S formation by S. hominis, 96-well plate)
Format: cell-based
Details: for (%) Malodour generated: bacterial control = 100; for % malodour generation as compared to pectin: malodour assay, carbohydrates at 2 wt. %
Experimental: The test organisms was grown on TSA (Tryptic Soya Agar) plates overnight (22±2 hr). The organism was not more than 3 passages removed from the original source. The cell number was adjusted by re-suspending it in a suitable amount of physiological saline sufficient to achieve the required cell number based on optical density of the cells. The optical density (OD at 620 nm) of the cells were standardized to the cell number for the test organism using a spectrophotometer. A minimum final suspension of 1.0×10^8 CFU/mL was achieved by adjusting the OD to 0.2 in saline for the malodour assay. A 1% lead acetate solution was made in distilled water. Whatmann filter paper (cut in the size that could be placed over the wells of a well plate) was dipped in the lead acetate solution. The excess solution was drained and allowed to dry in Laminar Air Flow for 30 minutes. Stock solutions of the actives were prepared for performing the assay. A 0.5% citrus pectin was prepared by weighing 0.05 g of pectin in 10 ml sterile distilled water under magnetic stirrer for 30 min. A 1:10 dilution of this stock was prepared in sterile distilled water to achieve a final stock of 0.05% citrus pectin to perform the assay. A 1% stock of niacinamide was prepared by weighing 0.1 g in 10 ml sterile distilled water. The malodour assay was adapted from the method of Moore et al, 2003 and modified into a 96 well plate format. 100 μl Tryptic Soy Broth (TSB) with 0.1% L-cysteine-HCl was added into the wells of the 96-well plate. 20 μl of 0.2 OD culture of S. hominis was then added into the wells. The actives were added from the stock solutions at required concentrations and made up the volume to 200 μl with addition of sterile distilled water. The assay was done in triplicates. The lead acetate paper was placed over the wells and the lid of the 96-well plate was closed and incubated at 37° C. incubator overnight. After the incubation time, the dark coloration of the lead acetate paper was observed. Visible blackening of lead acetate in the area over the well indicated the presence of H2S. The intensity of the colour was recorded using a reflectometer as L*a*b* values. The difference between the initial and final L*a*b* values ΔE, was used to quantify malodour formation. The percentage malodour was calculated from ΔE measured using the above assay for the various actives or combinations.

[1] = Table 2, comparative carbohydrates at 2 wt. %
[2] = Table 1, active wt % as given per example, S. hominis in TSB with 0.1% L-cysteine-HCl, 37° C. overnight, calculated from ΔE

SMILES	(%) Malodour generated [1]	% malodour generation as compared to pectin (Table 2)	(%) Malodour generated [2]
OC[C@H]1O[C@@](CO)(O[C@H]2O[C@H](CO)[C@@H](O)[C@H](O)[C@H]2O)[C@@H](O)[C@@H]1O [F, Sucrose]	100%	higher	
O=C[C@H](O)[C@@H](O)[C@@H](O)[C@H](O)CO [J, Galactose]	90%	higher	
NC(=O)c1cccnc1 [D, Niacinamide]			71%
NC(=O)c1cccnc1 [C, Niacinamide]			89%
